These results are taken from patent US20200003760A1, “IN-VITRO METHODS FOR CLASSIFYING DRUGS ACCORDING TO THEIR POTENTIAL TO CAUSE LIVER CELL INJURY” (Board of Trustees of Michigan State University, priority 2018, published 2020).

The term Cmax denotes the highest concentration seen after dosing.

Data set [1] concerns HepG2 cells. The data set is described as follows: Drug/cytokine-induced cytotoxicity (% LDH release) concentration-response in HepG2 cells. Format: cell-based, human. More on the design: key to Deltadiff: LDH release percentage points (drug/TNF Delta minus drug/VEH Delta). As to conditions: for R10 IFN: with IFN; for R10 TNF: with TNF; for R10 TNF/IFN / EC10 TNF/IFN: with TNF and IFN; for Deltadiff: Delta of drug/TNF curve minus Delta of drug/VEH curve (LDH percentage); for Emax: Homo sapiens; for TNF change: D10TNF − D10VEH; for synergy with cytokines to kill HepG2 cells / cytotoxic interaction of drug with TNF / cytotoxicity of drug on its own (LDH release): HepG2, 24 h; for synergy with cytokines to kill HepG2 cells: TNF and/or IFN; for EC10 TNF: with TNF 10 ng/ml; for cytotoxic interaction of drug with TNF: TNF 10 ng/ml; for cytotoxicity of drug on its own (LDH release): absence of cytokines. The method, then: Cells were passed or used for experiments when they reached approximately 80% confluence. Cells were used at passage 6-16.
HepG2 cells were plated at a density of 4×10^4 cells per well in black-walled, 96-well, tissue culture plates and were allowed to attach overnight before being treated with compounds. Drugs were reconstituted in vehicles consisting of sterile water or DMSO (concentration less than 0.5%). Cells were treated with various concentrations of the drug or its vehicle (control) alone or in combination with the cytokines TNF (10 ng/ml) and/or IFN (10 ng/ml) or their PBS vehicle (VEH). Cytotoxicity was evaluated as lactate dehydrogenase (LDH) activity released from the cells into culture medium using the Homogeneous Membrane Integrity Assay kit from Promega (Madison, Wis.).
Concentration-response curves were generated for 24 drugs, 14 of which are associated with human IDILI and 10 of which are not. […] This was necessary because four-parameter logistic modeling used in the statistical analysis requires well defined, sigmoidal concentration-response curves. Cells were exposed to drug/cytokine combinations for 24 hours. For analysis of drug concentration-response data, concentrations of each drug were expressed as a fraction of its Cmax.
Defining covariates: four-parameter logistic model. In the first phase, variables (potential covariates) for use in the classification analysis were defined from the analysis of drug concentration-response data. Initially, a one-way analysis of variance (ANOVA) was used as an omnibus test to determine if a particular treatment (e.g. drug alone or in combination with TNF and/or IFN) caused a significant change in LDH release relative to baseline (i.e., LDH release in the absence of drug, hereafter designated “min”). The criterion for significance for the ANOVA was set at α=0.01. A 1% level of significance was used to rule out more vigorously marginal relationships between concentration and response.
where LDH(x) is the percentage of LDH released at a given concentration x; x=[drug]/Cmax; min=the % LDH release at 0 drug concentration (i.e., baseline); and max=the maximal LDH response (i.e., maximum % LDH release).
where D10 is a categorical variable related to reaching a threshold LDH response above which a drug is classified as positively associated with IDILI. D10 is defined as 0 if Delta<10% LDH release and as 1 if Delta≥10% LDH release.
The base covariate R10 represents the [drug]/Cmax value associated with an increase in 10 LDH percentage points above min for a particular treatment condition and was determined by the equation:
R10 was considered to be 0 when the Delta<10% LDH (i.e. when D10=0).
EC50 quotient, EC10 quotient and R10 quotient represent the ratio between the EC50, EC10 or R10 of the drug/cytokine concentration-response curve and the respective value for the drug/VEH concentration-response curve. In some instances, the value derived from this calculation is indeterminate (i.e. when the denominator=0). In order to incorporate the quotient values into the classification models described below, the categorical variable “Q” was used to eliminate the possibility of the quotient being indeterminate. Q is defined as 0 if Delta VEH and/or Delta cytokine is <10% LDH and 1 if both Delta VEH and Delta cytokine are ≥10% LDH. […] The same condition was applied for calculation of EC10 quotient and R10 quotient.
Deltadiff represents the difference between the Delta of the drug/cytokine concentration-response curve and the Delta of the drug/VEH curve. In other words, Deltadiff=(Delta cytokine)−(Delta VEH). FIG. 1 graphically illustrates several of the covariates defined above. […] In addition to the covariates derived from the concentration-response curves, the maximal therapeutic plasma drug concentration (Cmax) in human patients was used in some models (Table 1).
In general terms: LDH in the medium is a marker of cell lysis.

The conditions of data set [2]: cited from earlier work; for True classification: IDILI in human patients; for IDILI liability: criteria of Xu et al. (2008).
For data set [3] the following is noted: cited from earlier work.
Data set [4] in a line: Logistic regression classification model: probability that a drug is associated with IDILI. As to conditions: for Estimated probability: probability that drug is associated with IDILI, covariates Deltadiff, EC50 VEH, EC50 TNF, Delta VEH, Cmax, optimal cutoff 0.46. Set-up: species or system human. From the text:
Classification modeling using defined covariates. In the second phase of analysis, classification models were developed using logistic regression with covariates as independent variables in the analysis and known IDILI classification as the dependent variable. A model selection process was used to determine if a covariate or set of covariates is associated with IDILI liability. Covariates were first evaluated individually to determine how well a particular covariate classified drugs according to IDILI liability, and then covariates were evaluated in combination. Combinations of covariates were selected to maximize the ability of the model to distinguish between drugs associated or not with IDILI. Specifically, covariates that describe changes in efficacy (Delta, Deltadiff, etc.) were paired with covariates that describe changes in potency (EC50, EC10, R10, etc.) to find covariate combinations that led to models that most accurately discriminated between drugs that are and are not associated with IDILI. […] The logistic regression models follow the equation: […]
where ŷi is the calculated (predicted) probability that drug i with a vector of covariates xi is associated with IDILI. The β coefficients (β0, the regression intercept; and βi, the regression slopes for model covariates, xi) were derived from the logistic regression models using 1) combinations of the covariates (xi) generated by concentration-response modeling for each of the 24 drugs evaluated in this study, and 2) the true IDILI classification for the dependent variable yi (i.e., 1 for IDILI+drugs and 0 for IDILI-drugs). […] This occurs when a covariate almost perfectly separates observations into the appropriate categories. […] When separation or quasi-complete separation occurs, use of the standard method (i.e., maximum likelihood estimation) provides biased, unreliable estimates of βi.
Receiver operating characteristic (ROC) analysis. In the third phase of the statistical approach, the classification models, generated as logistic regression models using single covariates or combinations of covariates, were evaluated by ROC analysis to determine which model and corresponding sets of covariates led to the most accurate classification of drugs according to their potential to cause IDILI. An ROC curve was created for each model by graphing the true positive rate (sensitivity; i.e., proportion of drugs correctly classified as associated with IDILI) against the false positive rate (1-specificity; i.e., proportion of drugs incorrectly classified as associated with IDILI) at various probability cutoff thresholds (k). […] An area under the curve (AUC) and confidence interval was computed for each ROC curve (where each logistic regression model has one ROC curve). […] Corresponding to each ROC curve is an optimal threshold value (k*), the threshold yielding the highest point of accuracy on the curve (i.e., the point nearest the point […] on the curve). Thus, each ROC curve has a corresponding AUC and an optimal cutoff (k*) that corresponds to the highest point of accuracy on that ROC curve.

Setting [5] is: 10 percent increase in LDH response above min, 0 when D10 = 0, drug alone (VEH).
[6] abbreviates: 10 percent increase in LDH response above min, 0 when D10 = 0.
The mark [7] stands for this setting: HepG2, categorical, Delta threshold 10 LDH percentage points, drug alone (VEH), read-out: D10.
[8] abbreviates: HepG2, maximal LDH response, drug alone (VEH), 24 h, read-out: max.
Setting [9] is: maximal plasma concentration after pharmacologic dosing in human patients.
[10] abbreviates: value corresponding to 10% of Delta, NA = no significant increase.

Entries after “also recorded” stand apart in the source; their conditions may differ. Where two headings read alike, the source gives them in different places.

Turning to `CC(CN1c2ccccc2Sc2ccccc21)N(C)C` (stereo not drawn) [Promethazine], in data set [1] (setting [5]), the R10 was 0 [drug]/Cmax. For the same compound, in data set [1] (setting [6]), the “R10 IFN” value was 0 [drug]/Cmax, the “R10 TNF” value is 0 [drug]/Cmax and the “R10 TNF/IFN” value was 0 [drug]/Cmax. Moreover, the Deltadiff in data set [1] amounted to 0. Further, the Emax in data set [1] (setting [7]) is < 10%. The Emax in data set [1] (setting [8]) stood at 17%. Also, in data set [1] (categorical), the TNF change is 0. In data set [2], the True classification entry is on record as “IDILI−” and the IDILI liability entry is “IDILI−”. For the same compound, the peak concentration (Cmax) in data set [3] (setting [9]) is 60 nM. The Estimated probability in data set [4] was 0.1275.
As to `CC[C@H]1OC(=O)[C@H](C)[C@@H](O[C@H]2C[C@@](C)(OC)[C@@H](O)[C@H](C)O2)[C@H](C)[C@@H](O[C@@H]2O[C@H](C)C[C@H](N(C)C)[C@H]2O)[C@](C)(O)C[C@@H](C)CN(C)[C@H](C)[C@@H](O)[C@]1(C)O` [Azithromycin], in data set [1] (setting [5]), the R10 was 0 [drug]/Cmax. In addition, in data set [1] (setting [6]), the “R10 IFN” value is 0 [drug]/Cmax, the “R10 TNF” value was 0 [drug]/Cmax and the “R10 TNF/IFN” value is 333.9 [drug]/Cmax. In data set [1], the Deltadiff was 0 and the “synergy with cytokines to kill HepG2 cells” value was “modestly cytotoxic in the presence of TNF/IFN”. Moreover, the Emax in data set [1] (setting [7]) was < 10%. Also, in data set [1] (setting [8]), the Emax was 11.6%. Also, the TNF change in data set [1] (categorical) came out at 0. Moreover, the “EC10 TNF/IFN” value in data set [1] (setting [10]) is 59.2 [drug]/Cmax. In addition, in data set [2], the True classification result is “IDILI−” and the IDILI liability result is listed as “IDILI−”. Besides, the Cmax in data set [3] (setting [9]) was 500 nM. Also, in data set [4], the Estimated probability is recorded as 0.1276.
In the case of `COc1ccc2cc([C@H](C)C(=O)O)ccc2c1` [Naproxen], in data set [1] (setting [5]), the R10 was 60.5 [drug]/Cmax. In addition, in data set [1] (setting [6]), the “R10 IFN” value is 65.9 [drug]/Cmax, the “R10 TNF” value is 24.3 [drug]/Cmax and the “R10 TNF/IFN” value is 18.4 [drug]/Cmax. The Deltadiff in data set [1] was −9.3. Moreover, in data set [1] (setting [7]), the Emax is > 10%. The Emax in data set [1] (setting [8]) is 102%. Further, in data set [1] (value corresponding to 10% of Delta (max-min), drug alone (VEH), NA = no significant increase), the EC10 is 59.8 [drug]/Cmax. In addition, the “EC10 IFN” value in data set [1] (value corresponding to 10% of Delta, with IFN 10 ng/ml, NA = no significant increase) is 64.8 [drug]/Cmax. Moreover, in data set [1] (setting [10]), the “EC10 TNF” value was 23.6 [drug]/Cmax and the “EC10 TNF/IFN” value is 17.3 [drug]/Cmax. For the same compound, in data set [2], the True classification result was “IDILI+”. The Estimated probability in data set [4] is recorded as 0.8589.
On to `CS(=O)(=O)Nc1ccc([N+](=O)[O-])cc1Oc1ccccc1` [Nimesulide], for which, in data set [1], the R10 is 0 [drug]/Cmax, the Deltadiff was 92.3, the “cytotoxic interaction of drug with TNF” value was “synergized with TNF to cause cytotoxicity” and the “cytotoxicity of drug on its own (LDH release)” value was “caused no cytotoxicity on their own”. In data set [1] (setting [6]), the “R10 IFN” value is 0 [drug]/Cmax, the “R10 TNF” value was 32.0 [drug]/Cmax and the “R10 TNF/IFN” value is 33.5 [drug]/Cmax. Moreover, the Emax in data set [1] (HepG2, read-out: D10) is < 10%. Moreover, in data set [1] (setting [8]), the Emax turned out to be 14.6%. The TNF change in data set [1] (categorical) was found to be 1. Also, in data set [1] (setting [10]), the “EC10 TNF” value was 31.8 [drug]/Cmax and the “EC10 TNF/IFN” value is 33.2 [drug]/Cmax. In addition, in data set [3] (setting [9]), the Cmax was 21100 nM. In addition, the Estimated probability in data set [4] is listed as 1.
As to `CC(C)(O)C(=O)Nc1ccc([N+](=O)[O-])c(C(F)(F)F)c1` [2-hydroxyflutamide], in data set [3] (metabolite of flutamide in vivo), the Cmax is 5740 nM. The “calculated probability for association with IDILI” value in data set [4] (best-performing classification model) was 0.999.
In the case of `CC(C)C(=O)Nc1ccc([N+](=O)[O-])c(C(F)(F)F)c1` [Flutamide], in data set [1] (setting [5]), the R10 was 0 [drug]/Cmax. Also, in data set [1] (setting [6]), the “R10 IFN” value was 0 [drug]/Cmax, the “R10 TNF” value is 0 [drug]/Cmax and the “R10 TNF/IFN” value is 0 [drug]/Cmax. Also, in data set [1], the Deltadiff worked out at 0.4, the “cytotoxic interaction of drug with TNF” value is recorded as “very small but statistically significant increases in LDH release”, the “synergy with cytokines to kill HepG2 cells” value is listed as “did not synergize with cytokines to kill HepG2 cells” and the “cytotoxicity of drug on its own (LDH release)” value is listed as “statistically significant increase in LDH release; also recorded: very small but statistically significant increases in LDH release”. Moreover, in data set [1] (setting [7]), the Emax was < 10%. Moreover, in data set [1] (setting [8]), the Emax came out at 24.6%. The TNF change in data set [1] (categorical) is 0. For the same compound, in data set [2], the True classification entry is recorded as “IDILI+” and the IDILI liability entry is recorded as “IDILI+”. In addition, the Cmax in data set [3] (setting [9]) was 360 nM.
